According to patent US8030518B2, “1,4 diamino bicyclic retigabine analogues as potassium channel modulators” (Valeant Pharmaceuticals International, priority 2006, dated 2011):

Tests used:
KCNQ2/3 heteromultimers = target: T1, KCNQ2/3 heteromultimers (Rattus norvegicus, UniProt O88943+O88944); test: cell-based Rb+ efflux assay in PC-12 cells; conditions: Rb+ efflux cellular assay
T1 construct: endogenous in cells; host or cells: PC-12 cells differentiated with NGF-7s; no transfection described
Procedure: Compounds of this invention formula were evaluated for activity toward potassium channels in a cell-based Rb^+ efflux assay. This cellular bioassay is believed to faithfully represent the M channel activities identified with KCNQ2/3 heteromultimers. […] Additionally, antiseizure activity in vivo was evaluated in a mouse maximal electroshock seizure (MES) model, and neurotoxicities were determined from a rotorod neurocognitive motor impairment model and open field observation.
PC-12 cells were grown at 37° C. and 5% CO2 in DMEM/F12 Medium (Dulbecco's Modified Eagle Medium with Nutrient Mix F-12, available from Invitrogen of Carlsbad, Calif.), supplemented with 10% horse serum, 5% fetal bovine serum, 2 mM glutamine, 100 U/ml penicillin, and 100 U/ml streptomycin. They were plated in poly-D-lysine-coated 96-well cell culture microplates at a density of 40,000 cells/well and differentiated with 100 ng/ml NGF-7s for 2-5 days. For the assay, the medium was aspirated, and the cells were washed once with 0.2 ml wash buffer (25 mM HEPES, pH 7.4, 150 mM NaCl, 1 mM MgCl2, 0.8 mM NaH2PO4, 2 mM CaCl2). The cells were then loaded with 0.2 ml Rb^+ loading buffer (wash buffer plus 5.4 mM […], 5 mM glucose) and incubated at 37° C. for 2 h. Attached cells were washed quickly three times with buffer (same as Rb^+ loading buffer, but containing 5.4 mM KCl instead of RbCl) to remove extracellular Rb^+. Immediately following the wash, 0.2 ml of depolarization buffer (wash buffer plus 15 mM KCl solution) with or without compounds was added to the cells to activate efflux of potassium ion channels. After incubation for 10 min at room temperature, the supernatant was carefully removed and collected. Cells were lysed by the addition of 0.2 ml of lysis buffer (depolarization buffer plus 0.1% Triton X-100) and the cell lysates were also collected. If collected samples were not immediately analyzed for Rb^+ contents by atomic absorption spectroscopy (see below), they were stored at 4° C. without any negative effects on subsequent Rb^+ analysis.
The concentrations of Rb^+ in the supernatants (Rb^+Sup) and the cell lysates (Rb^+Lys) were quantified using an ICR8000 flame atomic absorption spectrometer (Aurora Biomed Inc., Vancouver, B.C.) under conditions defined by the manufacturer. Samples 0.05 ml in volume were processed automatically from microtiter plates by dilution with an equal volume of Rb^+ sample analysis buffer and injection into an air-acetylene flame. The amount of Rb^+ in the sample was measured by absorption at 780 nm using a hollow cathode lamp as light source and a PMT detector. A calibration curve covering the range 0-5 mg/L Rb^+ in sample analysis buffer was generated with each set of plates. The percent Rb^+ efflux (F) was defined by F=[Rb^+Sup/(Rb^+Sup+Rb^+Lys)]×100%. […] The efflux (F) and compound concentration relationship was plotted to calculate an EC50 value, a compound's concentration for 50% of maximal Rb^+ efflux. Seizure Model Tests

[1] = system: maximal electroshock seizure; test: mouse maximal electroshock seizure (MES) test; type: in vivo; set-up: key: A: active; B: inactive; conditions: ip dosing of 12.5 mg/kg
Description: (§1) The MES testing protocol is based on procedures established at the National Institute of Neurological Disorders and Stroke in conjunction with the Anticonvulsant Screening Program (ASP) at the University of Utah (White, H. S., Woodhead, J. H., Wilcox, K. S., Stables, J. P., Kupferberg, H. J and Wolf, H. H. 2002. “General Principles: Discovery and Preclinical Development of Antiepileptic Drugs,” in Antiepileptic Drugs, 5th Edition, R. H. Levy, ed.; R. H. Mattson, B. S. Meldrum, and E. Perucca. Philadelphia, Lippincott Williams & Wilkins.), The goal of the test is to rapid identify and characterize the in vivo anticonvulsant activity of any compounds that have been shown active in PC-12 cellular based Rb^+ efflux assay.
(§2) Adult male CF-1 albino mice (18-25 g, Charles River Laboratories) are […] used for MES screening of compounds. Male Sprague-Dawley albino rats (100-125 g, Charles River Laboratories) are also used to test anticonvulsant compounds. Animals are permitted to rest and recover from transit for at least 48 hr prior to experimentation. Animals are used for AED testing only once. In some instances, the animals can be anesthetized prior to blood collection or whole brain extraction for pharmacokinetic assay. All animals are maintained and handled as outlined in standard animal care guidelines.
(§3) In the experiments, testing compounds are prepared as suspensions in 0.5% methyl cellulose (Sigma, Cat # M0512, Viscosity 4000 cP at 20° C.) in water, regardless of solubility. Dry powder compounds are initially ground with a glass rod in a test tube in several drops of methyl cellulose to create a paste and to break down any large chunks. After several minutes of grinding, the volume of the suspension is increased to the final concentration desired. The suspension is then sonicated using a Branson sonicator model 3510 in a water bath at room temperature for 15 minutes. Compound suspensions are further vortexed prior to animal dosing. In some of the cases, DMSO is used to initially solubilize compounds in small volumes and then this solution is added to the 0.5% methyl cellulose solution, in order to create more even and less aggregated compound suspensions. The final concentration of DMSO is 3.75%, an amount with no apparent toxicity or neuroprotective effects in our usual rotarod and MES tests. Methyl cellulose/DMSO compound suspensions are identically prepared for intraperitoneally (i.p.)dosing to mice or orally (p.o.) dosing to rats.
Initially the animals are weighed with an electronic scale and then marked. Data recording sheets are generated for each compound assessment. Mice or rats are dosed with the compound suspension at 0.01 mL/g of body weight. The typical injection volume range is between 180-250 μl for mice. Compounds are dosed by i.p. to mice using a 25 or 22 gauge needle, depending on the viscosity of the suspension. Rats are p.o. dosed using a flexible feeding tube, typically starting at a compound dose of 5 mg/kg.
A Rodent Electroconvulsive Stimulator (Model 200, Hamit-Darvin-Freesh, Snow Canyon Clinic, Ivins, Utah) is used for MES testing. A 60-Hz alternating current (50 mA for mice; 150 mA for rats) is delivered for 0.2 seconds through corneal electrodes to the mice. A drop of 0.5% tetracaine (Sigma, Cat. # T-7508) solution is placed on the eye prior to current delivery. The electrodes are subsequently placed gently onto the eyes of the animal and the electrical shock is initiated by triggering through a foot-pedal activator. The animals are restrained by hand and gently released as the shock is delivered and the seizure commences. Animals are monitored for hind limb tonic extension as the end point for this test. Current delivery is recorded as a measure of overall seizure-induction potential. Electrical current delivery can vary from approximately 30-55 mA (mice) or 90-160 mA (rats) depending on impedance in the animal and quality of the current delivery (i.e. correct placement of the electrodes on the cornea). […]

[2] = system: maximal electroshock seizure; test: rat maximal electroshock seizure (MES) test; type: in vivo
Description: as §1, §2
as §3, with “rats. […]” for “rats.”
A Rodent Electroconvulsive Stimulator (Model 200, Hamit-Darvin-Freesh, Snow Canyon Clinic, Ivins, Utah) is used for MES testing. […] Animals are monitored for hind limb tonic extension as the end point for this test. Current delivery is recorded as a measure of overall seizure-induction potential. […]

Structure (SMILES) | EC50 (KCNQ2/3 heteromultimers) | Mouse MES test [1] | ED50 [2]
Cc1cc2c(c(C)c1NC(=O)CC(C)(C)C)CCC2Nc1ccc(F)cc1 (single isomer, unassigned; (-)) [Example 12, (−) N-(1-(4-fluorophenylamino)-4,6-dimethyl-2,3-dihydro-1H-inden-5-yl)-3,3-dimethylbutanamide] | ≤ 1 nM | A | < 20 mg/kg
Cc1cc2c(c(C)c1NC(=O)CC(C)(C)C)CCC2Nc1ccc(C(F)(F)F)cc1 (single isomer, unassigned; (-)) [Example 15, (−) N-(4,6-dimethyl-1-(4-(trifluoromethyl)phenylamino)-2,3-dihydro-1H-inden-5-yl)-3,3-dimethylbutanamide] | ≤ 1 nM | A | < 20 mg/kg
Cc1cc2c(c(C)c1NC(=O)CC(C)(C)C)CCC2Nc1ccc(F)cc1 (stereo not shown) [Example 11, N-(1-(4-fluorophenylamino)-4,6-dimethyl-2,3-dihydro-1H-inden-5-yl)-3,3-dimethylbutanamide] | 1 to 10 nM | A | < 20 mg/kg
Cc1cc2c(c(C)c1NC(=O)CC(C)(C)C)CCC2Nc1ccc(C(F)(F)F)cc1 (stereo not shown) [Example 14, N-(4,6-dimethyl-1-(4-(trifluoromethyl)phenylamino)-2,3-dihydro-1H-inden-5-yl)-3,3-dimethylbutanamide] | 1 to 10 nM | A | < 20 mg/kg
Cc1cc2c(c(C)c1NC(=O)CC(C)(C)C)CCC2Nc1ccc(F)nc1 (stereo not shown) [Example 23, N-(1-(6-fluoropyridin-3-ylamino)-4,6-dimethyl-2,3-dihydro-1H-inden-5-yl)-3,3-dimethylbutanamide] | 50 to 500 nM | A | 
Cc1cc2c(c(C)c1NC(=O)CC(C)(C)C)CCC2Nc1ccc(C(F)(F)F)nc1 (stereo not shown) [Example 24, N-(1-(6-trifluoromethylpyridin-3-ylamino)-4,6-dimethyl-2,3-dihydro-1H-inden-5-yl)-3,3-dimethylbutanamide] | 10 to 50 nM | A | 
